Measurements published in publication PMC9699072 (Molecules, 2022).
Values joined by “and” are separate entries in the source; they are usually repeats but may differ in a detail not shown here. Equal entries are not always repeated.

Experiments:
Type in all cases: biochemical
[1] = ABTS radical cation scavenging (decolorization) assay; conditions: mean ± SEM, n = 3; for ABTS TEAC (Trolox equivalent antioxidant capacity): 1 h incubation, relative to Trolox; for IC50: 1 h, read-out: ABTS IC50 (compound concentration required for 50% reduction of the ABTS radical-cation) (converted)
Protocol: The ABTS assay is based on the direct quenching of the ABTS cation radical (ABTS^•+) by antioxidants. The assay is carried out by spectrophotometric determination of a decrease in absorbance of a stable dark green ABTS^•+ solution after its interaction with an antioxidant compound [56]. The measurements were performed as previously described in detail. The results are expressed as TEAC values (Trolox equivalent antioxidant capacity) and IC50 values (compound concentration required for 50% reduction of the ABTS radical).
Radical scavenging activity of the compounds was assessed using the ABTS radical cation (ABTS^•+) decolorization assay with some modifications. ABTS (2,2′-azinobis-(3-ethylbenzothiazoline-6-sulfonic acid)) was purchased from Tokyo Chemical Industry Co., Ltd. (Tokyo, Japan), and potassium persulfate (dipotassium peroxodisulfate), Trolox (6-hydroxy-2,5,7,8-tetramethylchroman-2-carboxylic acid), and HPLC-grade ethanol and DMSO were obtained from Sigma-Aldrich (Saint Louis, MO, USA). Aqueous solutions were prepared using deionized water. All test compounds were dissolved in DMSO.
The solution of cation radical ABTS^•+ was produced by incubation of an aqueous solution of 7 mM ABTS and 2.45 mM potassium persulfate solution in equal quantities for 12–16 h at room temperature in the dark. Radical scavenging capacity of the compounds was analyzed by mixing 10 μL of compound with 240 μL of ABTS^•+ working solution in ethanol (100 μM final concentration). Data were given for 1 h of incubation of compounds with ABTS^•+. The reduction in absorbance was measured spectrophotometrically at 734 nm using an xMark microplate UV/VIS microplate spectrophotometer (Bio-Rad, Hercules, CA, USA).
Ethanol blanks were run in each assay. Values were obtained from three replicates of each sample and three independent experiments.
Standard antioxidant Trolox was used as a reference compound. Antioxidant capacity as Trolox equivalent (TEAC) values was determined as the ratio between the slopes obtained from the linear correlation of the ABTS radical absorbance with the concentrations of tested compounds and Trolox. Quercetin was used as a positive control. For the test compounds that reduced ABTS^•+ absorbance by more than 60% at 100 µM, we also determined the IC50 values (the compound concentration required for a 50% reduction of the ABTS radical). The compounds were tested in the concentration range of 0.5–400 µM.

[2] = FRAP (ferric reducing antioxidant power) assay; conditions: mean ± SEM, n = 3; 1 h, 37 °C, pH 3.6
Protocol: The FRAP (ferric reducing antioxidant power) assay measures the ability of antioxidants to reduce the ferric 2,4,6-tripyridyl-s-triazine complex [Fe(TPTZ)2]^3+ to the intensely blue ferrous complex [Fe(TPTZ)2]^2+ in an acidic medium. The measurements were performed as previously described in detail. The results are expressed as TE (Trolox equivalents).
The FRAP (ferric reducing antioxidant power) assay measures the ability of antioxidants to reduce the ferric 2,4,6-tripyridyl-s-triazine complex [Fe (TPTZ)2]^3+ to the intensely blue ferrous complex [Fe (TPTZ)2]^2+ (λ = 593 nm) in acidic medium. 2,4,6-Tris(pyridin-2-yl)-1,3,5-triazine (TPTZ), FeCl3·6H2O, Trolox, quercetin and DMSO were obtained from Sigma-Aldrich Chemical Co. (St. Louis, MO, USA). The FRAP reagent contained 2.5 mL of 10 mM TPTZ solution in 40 mM HCl, 2.5 mL of 20 mM FeCl3·6H2O water solution, and 25 mL of 0.3 M acetate buffer (pH 3.6). Aliquots of 10 µL of the test compound solution in DMSO (0.5 mM) were mixed with 240 µL of FRAP reagent, and the absorbance of the mixture was measured spectrophotometrically (FLUOStar OPTIMA microplate spectrophotometer (BMG Labtech, Ortenberg, Germany)) at 600 nm after 1 h incubation at 37 °C against a blank. Trolox was used as a reference compound. Quercetin was used as a positive control. A calibration curve with linear formula y = 0.03x (R^2 = 0.998, p < 0.0001) was prepared for Trolox solutions in DMSO at a range of 2.5–100 µM, and the results are expressed as Trolox equivalents (TE), the values calculated as the ratio of the concentrations of Trolox and the test compound, resulting in the same effect.

human erythrocyte AChE = target: T1, human erythrocyte AChE (Homo sapiens, UniProt P22303); assay: Inhibition of AChE (Ellman's colorimetric assay); conditions: read-out: AChE % inhibition at 20 μM
T1 construct: Human erythrocyte acetylcholinesterase (AChE, EC 3.1.1.7); purchased Sigma-Aldrich (Saint Louis, MO, USA); host or cells: human erythrocytes
T1 sequence (P22303 32-617 isoform P22303-2 limits assumed): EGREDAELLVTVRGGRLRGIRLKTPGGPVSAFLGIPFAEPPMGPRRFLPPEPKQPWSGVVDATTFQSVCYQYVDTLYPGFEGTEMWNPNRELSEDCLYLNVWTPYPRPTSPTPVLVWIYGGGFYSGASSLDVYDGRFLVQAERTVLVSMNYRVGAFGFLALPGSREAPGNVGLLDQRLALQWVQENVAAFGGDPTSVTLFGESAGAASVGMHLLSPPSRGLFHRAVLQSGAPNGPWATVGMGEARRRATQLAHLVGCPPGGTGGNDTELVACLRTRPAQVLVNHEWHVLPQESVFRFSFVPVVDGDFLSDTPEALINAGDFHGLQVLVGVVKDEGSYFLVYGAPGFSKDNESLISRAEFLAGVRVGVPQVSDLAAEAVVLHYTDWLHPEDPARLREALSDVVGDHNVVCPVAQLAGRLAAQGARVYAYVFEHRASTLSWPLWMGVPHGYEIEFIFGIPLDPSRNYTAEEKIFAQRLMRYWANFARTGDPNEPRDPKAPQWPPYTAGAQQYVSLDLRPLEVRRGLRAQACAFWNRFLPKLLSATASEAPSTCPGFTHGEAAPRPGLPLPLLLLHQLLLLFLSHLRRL
Description: (§1) Given the available literature data on the ability of pyrazole derivatives to inhibit acetylcholinesterase (AChE) and human carboxylesterase-1 (CES), we performed an investigation of the esterase profile for new compounds 1a–j and 4a–j, including an evaluation of their inhibitory effect on the standard enzymes set: human erythrocyte AChE, equine serum butyrylcholinesterase (BChE), and porcine liver CES (Table 2). The applicability of this set of enzymes was shown by us earlier.
(§2) Human erythrocyte acetylcholinesterase (AChE, EC 3.1.1.7), equine serum butyrylcholinesterase (BChE, EC 3.1.1.8), porcine liver carboxylesterase (CES, EC 3.1.1.1), acetylthiocholine iodide (ATCh), butyrylthiocholine iodide (BTCh), 4-nitrophenol acetate (4-NPA), and 5,5′-dithio-bis-(2-nitrobenzoic acid) (DTNB) were purchased from Sigma-Aldrich (Saint Louis, MO, USA).
(§3) All the kinetic experiments were performed under standard conditions, according to the protocol of IPAC RAS for a reversible inhibitors study.
(§4) Ellman’s colorimetric assay was used to measure AChE and BChE activity in 0.1 M K/Na phosphate buffer at pH 7.5, 25 °C [86]. Final concentrations of reactants were 0.33 mM DTNB, 0.02 unit/mL of AChE or BChE, and 1 mM of substrate (ATCh or BTCh, respectively). Reagent blanks consisted of reaction mixtures without enzyme to assess non-enzymatic hydrolysis of substrates. Porcine liver CES activity was assessed colorimetrically in 0.1 M K/Na phosphate buffer with pH 8.0 at 25 °C, by measuring the absorbance of 4-nitrophenol at 405 nm. Final enzyme and substrate (4-NPA) concentrations were 0.02 unit/mL and 1 mM, respectively. Reagent blanks included all constituents except enzyme.
(§5) Test compounds were dissolved in DMSO. Reaction mixtures contained a final DMSO concentration of 2% (v/v). Enzyme inhibition was first assessed at a single concentration of 20 µM for each compound after a 10 min incubation at 25 °C in three separate experiments. Compounds inhibiting the enzyme by more than 30% were then selected for determination of the IC50 (inhibitor concentration resulting in 50% inhibition of control enzyme activity). […] Substrate was then added, and residual enzyme activity relative to an inhibitor-free control was measured using a FLUOStar Optima microplate reader (LabTech, Ortenberg, Germany).

[3] = target: T2, equine serum butyrylcholinesterase (BChE) (Equus caballus, UniProt P81908); assay: Inhibition of BChE (Ellman's colorimetric assay); conditions: ± SEM, n = 3, 10 min incubation 25 °C
T2 construct: equine serum butyrylcholinesterase (BChE, EC 3.1.1.8); purchased Sigma-Aldrich (Saint Louis, MO, USA); host or cells: equine serum
T2 sequence (P81908 whole entry): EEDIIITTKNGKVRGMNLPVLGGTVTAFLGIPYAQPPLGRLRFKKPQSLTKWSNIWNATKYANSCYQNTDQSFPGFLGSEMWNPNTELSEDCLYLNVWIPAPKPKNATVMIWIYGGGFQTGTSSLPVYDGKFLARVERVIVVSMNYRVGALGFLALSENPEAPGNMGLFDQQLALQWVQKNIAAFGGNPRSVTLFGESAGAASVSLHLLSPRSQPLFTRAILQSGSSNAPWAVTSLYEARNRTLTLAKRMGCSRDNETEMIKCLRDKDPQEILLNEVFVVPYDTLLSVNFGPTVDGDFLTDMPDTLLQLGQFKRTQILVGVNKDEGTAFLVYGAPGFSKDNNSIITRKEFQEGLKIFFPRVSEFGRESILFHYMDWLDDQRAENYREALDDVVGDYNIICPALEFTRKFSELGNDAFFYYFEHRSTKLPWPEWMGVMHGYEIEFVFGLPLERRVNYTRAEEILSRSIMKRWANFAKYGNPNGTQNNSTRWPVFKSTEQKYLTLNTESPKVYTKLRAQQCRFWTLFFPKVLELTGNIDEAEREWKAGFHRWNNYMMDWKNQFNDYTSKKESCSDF
Description: as §1, §2, §3, §4, §5

porcine liver CES = assay: Inhibition of CES (4-nitrophenol acetate hydrolysis); conditions: 20 μM, ± SEM, n = 3, 10 min incubation 25 °C
Description: as §1, §2, §3, §4, §5

[4] = ORAC-FL (oxygen radical absorbance capacity) assay; conditions: mean ± SEM, n = 3; 2 h; 10 μM compound and Trolox
Description: In the oxygen radical absorbance capacity (ORAC-FL) assay, 2,2′-azobis-(2-methylpropionamidine) dihydrochloride (AAPH) is used as a free peroxyl radical generator, and fluorescein (FL) is used as a fluorescent probe. The method is based on measuring the decrease in the intensity of fluorescence with time, which characterizes the degree of decay of the fluorescent probe under the influence of peroxyl radicals. In the presence of antioxidants, the degree of decay of the fluorescent probe decreases and, accordingly, the fluorescence intensity increases. The results are expressed as TE (Trolox equivalents).
The ORAC assay utilizes a biologically relevant radical source, 2,2′-azobis(2-amidinopropane) dihydrochloride (AAPH)-derived peroxyl radicals. Thus, it is a more physiologically relevant assay than ABTS and FRAP.
The oxygen radical absorbance capacity (ORAC) was determined by the ability of compounds to protect fluorescein (FL) from peroxyl radicals that are generated by AAPH according to the known method with minor variations. The reaction was carried out at 37 °C in black 96-well plates (SPL life sciences), and the final volume of the reaction mixture was 200 µL per well. The fluorescence was recorded by Tecan M1000 PRO microplate reader (Switzerland) at 485 nm excitation and 520 nm emission.
The 0.7 mM fluorescein sodium salt stock solution in PBS pH 7.4 (137 mM sodium chloride, 2.7 mM potassium chloride, and 10 mM phosphate buffer) was prepared and stored at 4–5 °C no longer than one month. An aliquot of the fluorescein stock solution was further diluted with PBS immediately before each assay to yield a 70 nM working solution. The 133 mM AAPH solution in PBS was prepared immediately before use. The test compounds and Trolox standard were dissolved in DMSO to 400 μM. The final concentration was 10 μM for all of the samples.
The blank was composed of 15 μL PBS pH 7.4, 5 μL DMSO (final concentration: 2.5% (v/v)), 120 μL FL, and 60 μL AAPH, and it was included in each assay. PBS pH 7.4 (15 μL), antioxidant (the test compound or Trolox, 5 μL), and FL (120 μL, final concentration: 42 nM) solutions were placed in a black 96-well microplate and were pre-incubated for 15 min at 37 °C. AAPH solution (60 μL, final concentration 40 mM) was then added rapidly using a multichannel pipette. The fluorescence was recorded every minute for 2 h. A Trolox standard curve was also obtained in each assay. All reactions were carried out in quadruplicate, and two to four independent assays were performed for each sample.
Antioxidant curves (fluorescence vs. time) were first normalized to the curve of the blank (without antioxidant) corresponding to the same assay, and the net AUC corresponding to a sample was calculated by subtracting the AUC corresponding to the blank. The ORAC value was obtained by dividing the latter curve by the Trolox curve obtained in the same assay at 10 μM concentrations of compounds and Trolox. Final ORAC values, Trolox equivalents (TE), were expressed as μmol test compounds per μmol Trolox, where the value of TE for Trolox was taken as 1. Data were expressed as means ± SEM.

[5] = ORAC-FL (oxygen radical absorbance capacity) assay; conditions: mean ± SEM, n = 3; 2 h; read-out: ORAC-FL IC50 (compound concentration required for 50% reduction of peroxyl radical) (converted)

| Structure (SMILES) | ABTS TEAC (Trolox equivalent antioxidant capacity) [1] | FRAP TE (Trolox equivalent) [2] [TE] | inhibition at 20 µM (human erythrocyte AChE) [%] | inhibition at 20 µM [3] [%] | CES % inhibition at 20 μM (porcine liver CES) [%] | ORAC-FL TE (Trolox equivalent) [4] | IC50 [1] [µM] | IC50 [5] [µM] |
| --- | --- | --- | --- | --- | --- | --- | --- | --- |
| O=C1/C(=N\O)C(C(F)(F)F)=NN1c1ccccc1 [1a] | 0.035 ± 0.002 (n.d.) TEAC |  |  |  |  |  |  |  |
| O=C1/C(=N\O)C(C(F)(F)C(F)(F)F)=NN1c1ccccc1 [1b] | 0.03 ± 0.002 (n.d.) TEAC | 0.06 ± 0.01 | 11.9 ± 0.9 | 16.1 ± 1.4 | 8.2 ± 1.3 |  |  |  |
| O=C1/C(=N\O)C(C(F)(F)C(F)(F)C(F)(F)C(F)(F)F)=NN1c1ccccc1 [1c] | 0.04 ± 0.004 (n.d.) TEAC | 0.06 ± 0.01 | 11.5 ± 1.8 | 5.3 ± 1 | 7.8 ± 1.4 |  |  |  |
| CC1=NN(c2ccccc2)C(=O)/C1=N\O [1d] | 0.16 ± 0.02 (n.d.) TEAC |  | 4.9 ± 1.3 | 6.6 ± 1.3 |  | 1.07 TE and 1.07 ± 0.17 TE |  |  |
| O=C1NN=C(C(F)(F)C(F)F)/C1=N/O [1f] | 0.15 ± 0.007 (n.d.) TEAC |  | 6.8 ± 1.2 | 4.7 ± 1 | 3.5 ± 0.9 |  |  |  |
| O=C1NN=C(C(F)(F)C(F)(F)C(F)(F)F)/C1=N/O [1h] | 0.19 ± 0.008 (n.d.) TEAC |  | 5.3 ± 1.3 |  | 6.6 ± 1.4 | 2.37 ± 0.09 TE |  |  |
| O=C1NN=C(C(F)(F)C(F)(F)C(F)(F)C(F)(F)F)/C1=N/O [1i] | 0.2 ± 0.01 (n.d.) TEAC |  |  |  |  | 2.41 ± 0.08 TE |  |  |
| Cl.Nc1c(C(F)(F)C(F)F)n[nH]c1O.O [4f, 4-Amino-3-(1,1,2,2-tetrafluoroethyl)-1H-pyrazol-5-ol hydrate hydrochloride] | 0.50 ± 0.02 TEAC | 0.62 ± 0.01 | 17.3 ± 1.5 |  | 17.5 ± 1.4 |  | 33.2 |  |
| O=c1c(O)c(-c2ccc(O)c(O)c2)oc2cc(O)cc(O)c12 [Quercetin, reference compound] | 1.20 ± 0.11 TEAC | 4.99 ± 0.02 |  |  |  | 5.41 ± 0.08 TE | 13.8 |  |
| Cc1c(C)c2c(c(C)c1O)CCC(C)(C(=O)O)O2 (stereo not drawn) [Trolox, 6-hydroxy-2,5,7,8-tetramethylchroman-2-carboxylic acid, reference compound] | 1.0 TEAC | 1.0 |  |  |  | 1.0 TE | 20.1 | 23.6 |
